How the values were obtained:
Replicon cells [1] = experiment: cells; conditions: read-out: Cytostatic (IC50)
in vitro = conditions: replicon cells (lucubineo cells)
[2] = system: HCV replicon (Huh 5-2 [I389luc-ubi-neo-NS3-3′/5.1]); experiment: microbe, parasite or virus in culture; format: cell-based; conditions: for IC50: Hepatitis C virus, Huh-5-2, luciferase, 72 hours statin treatment; for Inhibition of luciferase expression in replicon cells (in words): FIG. 2
[3] = 6- to 12-month course; cited from earlier work
EMCV IRES = experiment: Green fluorescent protein assay (pIRES2-EGFP); format: cell-based, Encephalomyocarditis virus; conditions: atorvastatin concentrations which reduced HCV replicon activity (10 uM, FIG. 5)
Description: Replicon cells were electroporated in cytomix buffer at 10^7 cells/mL at 960 uF, 270 V with varying amounts pIRES2-EGFP. Cell viability was monitored by trypan blue staining and cell counting. Aliquots of cells (2×10^4) were plated out in clear bottomed black 96 well plates and incubated for 24 hours. The cells were rinsed with PBS and fluorescence output read using an Analyst HT (LJL Biosystems).
Impairment of this function was examined in the presence of statins. Replicon cells were transfected with varying amounts of pIRES2-EGFP in which the green fluorescent protein reporter is expressed by a EMCV IRES.

Replicon cells [4] = conditions: @ 10 μM
Replicon cells [5] = system: Replicon cells
HCV replicon RNA = experiment: Quantitative RT-PCR (Taqman) of replicon RNA; format: cell-based; conditions: FIG. 2A
Description: Statin-treated cells in the duplicate clear plate were analysed for cytotoxicity by addition of 10 μL WST-1 reagent (Roche Biosciences) to each well and incubated for 37° C. for 60 minutes. After vigorous shaking, the plate was read at 450 nm. The supernatent was removed and the monolayer washed with PBS prior to addition 100 μL RLT lysis buffer (Qiagen RNAeasy kit) to each test well, followed by vigorous resuspension to ensure uniform lysis of all cells. Total RNA was extracted according to Qiagen RNAeasy protocols recommended by manufacturer. Briefly, 0.1 μg total RNA was reverse transcribed using random hexamers and 20% cDNA produced was used as a template in a Taqman reaction (Universal PCR Master Mix protocol p\n 43044449 Rev B).
These procedures are described in Perkin Elmer Biosystems User Bulletin 2. Briefly, the quantity of replicon RNA in a given sample was determined relative to the untreated control and normalised with respect to actin. Having established that the efficiencies of the replicon and actin PCR reactions were similar (data not shown), the relative quantity of replicon RNA was described by 2^−ΔΔCt where, ΔΔCt=ΔCt(test)−ΔCt(control) ΔCt(test)[…]−Ct(actin) and ΔCt(control)=Ct(control)−Ct(actin) Cholesterol Biosynthesis Assay

Which IC50 (Replicon cells [1]) does the source give for `CCC(C)(C)C(=O)O[C@H]1C[C@@H](C)C=C2C=C[C@H](C)[C@H](CC[C@@H]3C[C@@H](O)CC(=O)O3)[C@H]21` [Simvastatin] here?
The IC50 was 28 µM.

What about the IC50 at 72 h (in vitro) of the same molecule?
Its IC50 at 72 h is 64.7 µM.

Which results are given for `COCc1c(C(C)C)nc(C(C)C)c(/C=C/[C@@H](O)C[C@@H](O)CC(=O)O)c1-c1ccc(F)cc1` [Cerivastatin]?
IC50 [2]: 1.1 µM; IC50 (Replicon cells [1]): 5.5 µM; IC50 at 72 h (in vitro): 4.9 µM

Which “Patients in whom an autoimmune condition is triggered” value [3] does the source give for Alpha interferon here?
Its value is “about 2%”.

Which results are given for `CC(C)c1c(C(=O)Nc2ccccc2)c(-c2ccccc2)c(-c2ccc(F)cc2)n1CC[C@@H](O)C[C@@H](O)CC(=O)O` (relative stereo) [Atorvastatin, [R-(R*,R*)]-2-(4-fluorophenyl)-b,d-dihydroxy-5-(1-methylethyl)-3-phenyl-4[(phenylamino)carbonyl]-IH-pyrrole-1-heptanoic acid]?
Effect on GFP signal driven by EMCV IRES (EMCV IRES): no effect; Cytotoxicity, % at one concentration (Replicon cells [4]): 18.3% @ 10 μM; Inhibition of luciferase expression in replicon cells (in words) [2]: increased antiviral activity compared to lovastatin; IC50 [2]: 4.1 µM; IC50 (Replicon cells [1]): 2.5 µM

With `C[C@@](O)(CCO)CC(=O)O` [MVA, mevalonic acid] as the molecule, how does the “Rescue of atorvastatin inhibition of HCV replicon activity by MVA” value ([2]; 14 μM MVA, 10 uM atorvastatin, FIG. 3A) read?
The value was “begins to alleviate the atorvastatin inhibition”.

And the “Response of control HCV replicon cells to MVA” value ([2]; absence of statin, FIG. 3B)?
The value was “do not respond”.

What about the “Rescue of atorvastatin inhibition of HCV replicon activity by MVA” value ([2]; further addition of MVA, 10 μM atorvastatin) of the same molecule?
Its value is “completely restores replicon activity”.

For `CC[C@H](C)C(=O)O[C@H]1C[C@H](O)C=C2C=C[C@H](C)[C@H](CC[C@@H](O)C[C@@H](O)CC(=O)O)[C@H]21` [Pravastatin], which IC50 [2] is on record?
Its IC50 is 322 µM.

And the “Cytostatic, % at one concentration” value (Replicon cells [5])?
Its value is 25% @ 500,000 μM.

With `CC[C@H](C)C(=O)O[C@H]1C[C@@H](C)C=C2C=C[C@H](C)[C@H](CC[C@@H]3C[C@@H](O)CC(=O)O3)[C@H]21` [Lovastatin] as the molecule, how does the “Replicon RNA by RT-PCR, normalised to beta actin” value (HCV replicon RNA) read?
Its value is “quantitative reduction of replicon RNA”.

What about the “Inhibition of luciferase expression in replicon cells (in words)” value [2] of the same molecule?
The value was “dose dependent inhibition”.

And the IC50 [2]?
The IC50 was 7.9 µM.

And the IC50 (Replicon cells [1])?
The IC50 was 89.3 µM.

What about the IC50 at 72 h (in vitro) of the same molecule?
Its IC50 at 72 h is 158 µM.

— patent US20050085528A1 (priority 2003, published 2005)
